# According to patent publication US20040053893A1, “Method of assaying iysophospholipase d activity” (priority 2000, published 2004):
# Columns and labels:
# [1] = system: LPLD; assay: Substrate specificity of purified LPLD or recombinant LPLD (Table 1); type: biochemical
# From the text: The thus-obtained purified LPLD or recombinant LPLD has a substrate specificity as shown in, for example, Table 1.
# [2] = target: T1, purified LPLD (bovine lysophospholipase D) (Bos taurus, UniProt A1A4K5); assay: LPLD activity assay using purified LPLD at various reaction pHs (Example 12); type: biochemical; settings: purified LPLD of Example 9, 37° C., 405 nm (FIG. 5)
# T1 construct: The starting material, FCS, and respective fractions obtained in the above-mentioned (1)-(7) were assayed for lysophospholipase D activity; from tissue; host or cells: fetal calf serum (FCS), chromatographic purification
# Protocol: (2) Preparation of Reagents
# Reagent C: 1-myristoyl-phosphatidyl-p-nitrophenol was dissolved in reagent B to correspond to 10 mmol/L and used as reagent C.
# For assay, biochemical automatic analyzer (Toshiba Corporation: TBA-80FR NEO) was used. The purified LPLD (8 μL) obtained in Example 9 and reagent A (240 μL) were pre-warmed at 37° C. for about 15 min, and after addition of reagent C (80 μL), the absorbance at dominant wavelength 405 nm and sub wavelength of 505 nm was measured with lapse of time for about 15 min.
# [3] = target: human serum albumin (Homo sapiens, UniProt P02768); settings: 5% human serum albumin, reagent B pH 7.6-8.6, 37° C. (FIG. 1)
# From the text: Reagent A: N-(2-hydroxyethyl)piperazine-N′-3-propanesulfonic acid (200 mmol/L), Triton X-100 (0.02%)
# Reagent B: reagent A was separated and adjusted to pH 7.6, 7.8, 8.0, 8.2, 8.4 and 8.6, diluted 2-fold to give reagent B having various pHs.
# citric acid monohydrate (10 mmol/L), Triton X-100 (0.01%), 1-hydroxy-2-linoleoyl-phosphatidyl-p-nitrophenol (Example 3; 10 mmol/L) prepared in the above-mentioned Example.
# Two kinds of commercially available control serum, respective test sample 1 (CONSERA: Nissui Pharmaceutical Co.) and test sample 2 (Lipid Serum II: Eiken Chemical Co., Ltd.), and 5% human serum albumin (fatty acid free: Sigma) solution for determination of the activity of albumin fraction in the serum, were used.
# Each sample (10 μL) and reagent B (150 μL) were dispensed to a microplate and the plate was incubated at 37° C. for about 5 min. Thereto was added reagent C (50 μL) and the absorbance at a dominant wavelength of 405 nm and sub wavelength of 540 nm was measured with the lapse of time. The LPLD activity was determined based on changes in absorbance per minute that depend on p-nitrophenol released by the action of LPLD. The activity is expressed by the amount of p-nitrophenol released in one minute per 1 mL of the reaction mixture.
# [4] = target: LPLD in human serum (Homo sapiens, UniProt Q13822); assay: LPLD activity assay with chromogenic substrates, human serum sample (Example 6); settings: pH 8.0, 37° C., p-nitrophenol release at 405 nm, compared with 1-acyl-2-hydroxy substrates B and D (FIG. 2-1)
# Protocol: 2-[4-(2-hydroxyethyl)-1-piperazinyl]ethanesulfonic acid (100 mmol/L), Triton X-100 (0.01%)
# Using human serum as a sample, 5% human serum albumin (fatty acid free: Sigma) solution was used for determining the activity in albumin fraction in the serum, and a 5 U/mL solution of Streptomyces-derived PLD (product abbreviation PLDP: Asahi Chemical Industry Co., Ltd.) was used for determining the reactivity with phospholipase D (PLD).
# Each sample (10 μL) and reagent A (150 μL) were dispensed to a microplate and the plate was incubated at 37° C. for about 5 min. Thereto was added reagent C (50 μL) and the absorbance at a dominant wavelength of 405 nm and sub wavelength of 540 nm was measured with the lapse of time. The LPLD activity was determined based on changes in absorbance per minute that depend on p-nitrophenol released by the action of LPLD. The activity is expressed by the amount of p-nitrophenol released in one minute per 1 mL of the reaction mixture.
# [5] = target: T2, LPLD in control serum (CONSERA, Lipid Serum II) (Homo sapiens, UniProt Q13822); assay: LPLD activity assay at various reaction pHs, control sera (Example 5); type: biochemical; settings: reagent B pH 7.6-8.6, 37° C. (FIG. 1)
# T2 construct: Two kinds of commercially available control serum; purchased Nissui Pharmaceutical Co. (CONSERA); Eiken Chemical Co., Ltd. (Lipid Serum II); host or cells: commercial control serum
# From the text: (1) Preparation of Reagent
# Chain of human serum albumin (P02768 25-609): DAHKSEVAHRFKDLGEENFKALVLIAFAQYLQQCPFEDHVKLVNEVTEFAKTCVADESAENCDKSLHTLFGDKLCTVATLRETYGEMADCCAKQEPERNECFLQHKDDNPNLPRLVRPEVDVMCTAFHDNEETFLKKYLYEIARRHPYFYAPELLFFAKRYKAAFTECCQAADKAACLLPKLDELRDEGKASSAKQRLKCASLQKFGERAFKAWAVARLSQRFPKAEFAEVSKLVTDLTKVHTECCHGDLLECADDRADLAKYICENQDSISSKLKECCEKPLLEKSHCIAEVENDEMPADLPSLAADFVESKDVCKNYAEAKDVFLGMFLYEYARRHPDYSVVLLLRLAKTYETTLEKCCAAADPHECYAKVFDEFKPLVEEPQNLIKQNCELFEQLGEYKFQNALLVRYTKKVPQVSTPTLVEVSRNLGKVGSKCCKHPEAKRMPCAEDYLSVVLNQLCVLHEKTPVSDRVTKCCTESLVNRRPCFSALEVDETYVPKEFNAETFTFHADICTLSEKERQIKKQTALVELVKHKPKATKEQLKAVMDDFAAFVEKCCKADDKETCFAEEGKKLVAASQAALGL
Molecule,Reaction product [1],also measured
1-alkenyl-2-hydroxy-glycerophosphocholine,1-alkenyl-2-hydroxy-glycero-3-,–
CCCCCCCCCCCCCC(=O)OCC(O)COP(=O)(O)Oc1ccc([N+](=O)[O-])cc1 (centres unmarked) [1-myristoyl-phosphatidyl-p-nitrophenol],–,LPLD activity as a function of reaction pH [2]: stronger activity was found when pH was on the alkaline side
CCCCCCCCCCCCC/C=C/[C@@H](O)[C@@H](N)COP(=O)([O-])OCC[N+](C)(C)C [lysosphingomyelin],"Sphingosine-1-phosphate,",–
CCCCC/C=C\C/C=C\CCCCCCCC(=O)OC(CO)COP(=O)(O)Oc1ccc([N+](=O)[O-])cc1 (centres unmarked) [substrate A],–,activity in a human serum albumin fraction as a function of reaction pH [3]: also increases; response to human serum [4]: higher; LPLD activity as a function of reaction pH [5]: potent when pH is on the alkaline side
CCCCCCCC/C=C\CCCCCCCC(=O)OC(CO)COP(=O)(O)Oc1ccc([N+](=O)[O-])cc1 (centres unmarked) [substrate C],–,response to human serum [4]: higher
lysophosphatidylcholine,"lysophosphatidic acid, choline",–
lysophosphatidylethanolamine,"lysophosphatidic acid,",–
lysophosphatidylinositol,"lysophosphatidic acid,",–
lysophosphatidylserine,"lysophosphatidic acid, serine",–
